11 compounds from patent publication US8377884B2, “Variants of C-type natriuretic peptides” (Biomarin Pharmaceutical Inc., priority 2007, dated 2013) can be followed below.

Data set [1] deals with neutral endopeptidase (NEP) (Homo sapiens, UniProt P08473). Put plainly: In vitro neutral endopeptidase (NEP) cleavage assay. Conditions: human, pH 7. As for the experimental part:
To determine the effects of amino acid substitutions, amino acid extensions, backbone modifications, side chain modifications and PEGylation on the susceptibility of CNP variants to neutral endopeptidase (NEP) cleavage, peptide cleavage assays were carried out using an in vitro assay that monitored disappearance of the non-cleaved CNP variant.
Recombinant human NEP (1 ug/mL final concentration) was added to 100 uM CNP variant diluted in 0.1 M Tris, pH 7. The reaction mixture was incubated at 37° C. for various periods of time, and the reaction was quenched with EDTA (10 mM final) followed by heat denaturation. The reaction mixture was reduced and then the reaction products were analyzed using HPLC and mass spectroscopy. The half-life of the CNP variant was calculated based on the disappearance of intact CNP variant over time.

Data set [2] concerns the target T1, NPR-B (Mus musculus, UniProt Q6VVW5).
T1 construct: Murine NIH3T3 cells express endogenously the CNP signaling receptor, NPR-B; endogenous in cells; host or cells: NIH3T3 (murine fibroblasts)
T1 sequence (Q6VVW5 17-1047): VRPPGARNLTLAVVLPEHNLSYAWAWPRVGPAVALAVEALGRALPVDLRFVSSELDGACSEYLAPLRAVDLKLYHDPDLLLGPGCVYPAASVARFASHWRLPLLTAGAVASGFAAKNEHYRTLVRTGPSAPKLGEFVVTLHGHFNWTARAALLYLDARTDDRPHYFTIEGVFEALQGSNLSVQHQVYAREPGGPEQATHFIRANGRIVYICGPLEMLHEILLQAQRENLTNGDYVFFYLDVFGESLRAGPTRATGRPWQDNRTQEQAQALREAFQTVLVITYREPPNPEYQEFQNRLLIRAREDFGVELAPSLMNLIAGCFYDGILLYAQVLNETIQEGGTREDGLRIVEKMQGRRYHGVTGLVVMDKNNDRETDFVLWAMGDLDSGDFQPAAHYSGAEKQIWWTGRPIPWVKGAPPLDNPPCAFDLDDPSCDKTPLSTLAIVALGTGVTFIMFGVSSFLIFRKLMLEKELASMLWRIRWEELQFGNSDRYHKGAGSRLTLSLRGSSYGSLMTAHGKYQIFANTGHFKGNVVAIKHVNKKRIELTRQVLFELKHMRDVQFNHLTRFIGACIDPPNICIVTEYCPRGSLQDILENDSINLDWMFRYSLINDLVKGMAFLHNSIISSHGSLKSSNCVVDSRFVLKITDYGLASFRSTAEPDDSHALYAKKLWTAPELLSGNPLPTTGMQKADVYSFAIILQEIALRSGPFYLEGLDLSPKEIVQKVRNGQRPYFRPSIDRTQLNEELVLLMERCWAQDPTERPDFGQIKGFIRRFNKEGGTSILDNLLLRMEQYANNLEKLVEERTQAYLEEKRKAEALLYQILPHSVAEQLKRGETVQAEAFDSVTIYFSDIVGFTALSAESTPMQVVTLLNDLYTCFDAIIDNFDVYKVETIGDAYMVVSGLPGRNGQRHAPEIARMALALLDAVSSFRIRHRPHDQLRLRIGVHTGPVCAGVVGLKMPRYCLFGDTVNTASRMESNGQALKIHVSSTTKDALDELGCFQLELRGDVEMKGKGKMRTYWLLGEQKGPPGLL
The data set is described as follows: Stimulation of cGMP production in NIH3T3 cells. Conditions: for cGMP response relative to 1 uM CNP22 (%) at 0.01 µM: read-out: cGMP Response rel. to 1 uM CNP22, 10 nM; for cGMP response relative to 1 uM CNP22 (%) at 1 µM: read-out: cGMP Response rel. to 1 uM CNP22, 1 uM. Format: cell-based, Murine.

[3] abbreviates: recombinant human neutral endopeptidase (NEP).
[4] abbreviates: NIH3T3 cells, 10 nM natriuretic peptide, normalized to cell number and cGMP production with 1 uM wtCNP22.
Setting [5] is: NIH3T3 cells, 1 uM natriuretic peptide, normalized to cell number and cGMP production with 1 uM wtCNP22.

Like-named read-outs stand apart in the source and are kept apart here. Bridge positions count the residues as written; N and C are the ends. Square brackets hold non-standard residues; d marks the D form. Ends that are not written are not given here. Peptide text beside a SMILES is read from it. * marks the point of attachment. Phe(3,4-Cl2) = N[C@@H](Cc1ccc(Cl)c(Cl)c1)C(=O)O; Phe(3-Me) = Cc1cccc(C[C@H](N)C(=O)O)c1; Cit = NC(=O)NCCC[C@H](N)C(=O)O; PEO24 = monodispersed, 1.2 kDa; Pentanoyl = CCCCC(=O)*

Sequence of neutral endopeptidase (NEP) (P08473 whole entry): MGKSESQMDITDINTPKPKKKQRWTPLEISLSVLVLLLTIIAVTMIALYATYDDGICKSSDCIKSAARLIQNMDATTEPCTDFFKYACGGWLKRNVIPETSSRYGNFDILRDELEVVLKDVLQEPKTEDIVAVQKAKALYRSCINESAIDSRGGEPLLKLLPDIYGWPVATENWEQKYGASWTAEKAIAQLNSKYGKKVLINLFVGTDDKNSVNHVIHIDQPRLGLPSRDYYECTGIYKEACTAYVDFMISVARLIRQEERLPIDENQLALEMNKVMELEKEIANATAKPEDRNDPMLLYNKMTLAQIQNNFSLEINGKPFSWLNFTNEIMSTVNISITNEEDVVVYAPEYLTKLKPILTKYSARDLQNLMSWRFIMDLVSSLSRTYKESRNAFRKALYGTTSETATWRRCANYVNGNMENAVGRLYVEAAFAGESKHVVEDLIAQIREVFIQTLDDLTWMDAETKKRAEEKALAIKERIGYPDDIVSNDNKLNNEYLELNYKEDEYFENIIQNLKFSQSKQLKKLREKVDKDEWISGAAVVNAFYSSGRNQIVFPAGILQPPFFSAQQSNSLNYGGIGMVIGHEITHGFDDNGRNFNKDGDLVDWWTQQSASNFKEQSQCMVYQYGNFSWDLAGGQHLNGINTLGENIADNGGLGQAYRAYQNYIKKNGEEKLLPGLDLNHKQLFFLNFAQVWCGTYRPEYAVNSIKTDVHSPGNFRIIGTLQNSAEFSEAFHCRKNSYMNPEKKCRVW

Usually half-life stands for the time needed for the level to fall by half in the phase considered. With `CC[C@H](C)[C@@H]1NC(=O)[C@H](CCCNC(=N)N)NC(=O)[C@H](CC(=O)O)NC(=O)[C@H](CC(C)C)NC(=O)[C@H](CCCCN)NC(=O)[C@H](CC(C)C)N(C)C(=O)CNC(=O)[C@H](Cc2ccccc2)NC[C@@H](NC(=O)CNC(=O)[C@H](CCCCN)NC(=O)[C@H](CO)NC(=O)[C@H](CC(C)C)NC(=O)CN)CSSC[C@@H](C(=O)O)NC(=O)CNC(=O)[C@H](CC(C)C)N(C)C(=O)CNC(=O)[C@H](CO)NC(=O)[C@H](CCSC)NC(=O)[C@H](CO)NC(=O)CNC1=O` [J], the half-life at 100 uM in data set [1] amounted to 0.833 h.

For the compound `CC[C@H](C)[C@@H]1NC(=O)[C@H](CCCNC(=N)N)NC(=O)[C@H](CC(=O)O)NC(=O)[C@H](CC(C)C)NC(=O)[C@H](CCCCN)NC(=O)[C@H](CC(C)C)NC(=O)CNC(=O)[C@H](Cc2ccc(Cl)c(Cl)c2)NC(=O)[C@@H](NC(=O)CNC(=O)CNC(=O)[C@H](CO)NC(=O)[C@H](CC(C)C)NC(=O)CN)CSSC[C@@H](C(=O)O)NC(=O)CNC(=O)[C@H](CC(C)C)NC(=O)CNC(=O)[C@H](CO)NC(=O)[C@H](CCSC)NC(=O)[C@H](CO)NC(=O)CNC1=O` [V] (H-GLSGGC[Phe(3,4-Cl2)]GLKLDRIGSMSGLGC-OH; disulfide 6-22), the half-life at 100 uM in data set [1] (setting [3]) was determined as 1.13 h.

`CCCCC(=O)N[C@@H](CCC(=O)O)C(=O)N[C@@H](CC(C)C)C(=O)N[C@@H](CO)C(=O)N[C@@H](CCC(=O)O)C(=O)NCC(=O)N[C@H]1CSSC[C@@H](C(=O)O)NC(=O)CNC(=O)[C@H](CC(C)C)NC(=O)CNC(=O)[C@H](CO)NC(=O)[C@H](CCSC)NC(=O)[C@H](CO)NC(=O)CNC(=O)[C@H]([C@@H](C)CC)NC(=O)[C@H](CCCNC(=N)N)NC(=O)[C@H](CC(=O)O)NC(=O)[C@H](CC(C)C)NC(=O)[C@H](CCCCN)NC(=O)[C@H](CC(C)C)NC(=O)CNC(=O)[C@H](Cc2ccccc2)NC1=O` [AV] (Pentanoyl-ELSEGCFGLKLDRIGSMSGLGC-OH; disulfide 6-22 (inferred); C-terminus assumed): the half-life at 100 uM in data set [1] (setting [3]) worked out at 2 h.

For `CC[C@H](C)[C@@H]1NC(=O)[C@H](CCCNC(=N)N)NC(=O)[C@H](CC(=O)O)NC(=O)[C@H](CC(C)C)NC(=O)[C@H](CCCCN)NC(=O)[C@H](CC(C)C)NC(=O)CNC(=O)[C@H](Cc2ccccc2)NC(=O)[C@@H](NC(=O)CNC(=O)[C@H](CCCNC(=N)N)NC(=O)[C@H](CO)NC(=O)[C@H](CC(C)C)NC(=O)CN)CSSC[C@@H](C(=O)O)NC(=O)CNC(=O)[C@H](CC(C)C)NC(=O)CNC(=O)[C@H](CO)NC(=O)[C@H](CCSC)NC(=O)[C@H](CO)NC(=O)[C@H](CCCNC(N)=O)NC1=O` [AF] (H-GLSRGCFGLKLDRI[Cit]SMSGLGC-OH; disulfide 6-22 (inferred); N-terminus and C-terminus assumed), in data set [2] (NIH3T3, […]), the cGMP response relative to 1 uM CNP22 (%) at 0.01 µM was found to be 1.4% and the cGMP response relative to 1 uM CNP22 (%) at 1 µM stood at 2%.

As for `CC[C@H](C)[C@@H]1NC(=O)[C@H](CCCNC(=N)N)NC(=O)[C@H](CC(=O)O)NC(=O)[C@H](CC(C)C)NC(=O)[C@H](CCCCN)NC(=O)[C@H](CC(C)C)NC(=O)CNC(=O)[C@@H](Cc2ccccc2)NC(=O)[C@@H](NC(=O)CNC(=O)[C@H](CCCCN)NC(=O)[C@H](CO)NC(=O)[C@H](CC(C)C)NC(=O)CN)CSSC[C@@H](C(=O)O)NC(=O)CNC(=O)[C@H](CC(C)C)NC(=O)CNC(=O)[C@H](CO)NC(=O)[C@H](CCSC)NC(=O)[C@H](CO)NC(=O)CNC1=O` [E], in data set [2] (NIH3T3, […]), the cGMP response relative to 1 uM CNP22 (%) at 0.01 µM was 2% and the cGMP response relative to 1 uM CNP22 (%) at 1 µM worked out at 6%.

Consider `CC[C@H](C)[C@@H]1NC(=O)[C@H](CCCNC(=N)N)NC(=O)[C@H](CC(=O)O)NC(=O)[C@H](CC(C)C)NC(=O)[C@H](CCCCN)NC(=O)[C@H](CC(C)C)NC(=O)[C@H](C(C)C)NC(=O)[C@H](Cc2ccccc2)NC(=O)[C@@H](NC(=O)CNC(=O)[C@H](CCCNC(=N)N)NC(=O)[C@H](CO)NC(=O)[C@H](CC(C)C)NC(=O)CN)CSSC[C@@H](C(=O)O)NC(=O)CNC(=O)[C@H](CC(C)C)NC(=O)CNC(=O)[C@H](CO)NC(=O)[C@H](CCSC)NC(=O)[C@H](CO)NC(=O)CNC1=O` [AA] (H-GLSRGCFVLKLDRIGSMSGLGC-OH; disulfide 6-22 (inferred); N-terminus and C-terminus assumed), for which the cGMP response relative to 1 uM CNP22 (%) at 0.01 µM in data set [2] (setting [4]) was 3%. Moreover, the cGMP response relative to 1 uM CNP22 (%) at 1 µM in data set [2] (setting [5]) was 25%.

Consider `CC[C@H](C)[C@@H]1NC(=O)[C@H](CCCNC(=N)N)NC(=O)[C@H](CC(=O)O)NC(=O)[C@H](CC(C)C)NC(=O)[C@H](CCCCN)NC(=O)[C@H]([C@@H](C)O)NC(=O)CNC(=O)[C@H](Cc2ccccc2)NC(=O)[C@@H](NC(=O)CNC(=O)[C@H](CCCNC(=N)N)NC(=O)[C@H](CO)NC(=O)[C@H](CC(C)C)NC(=O)CN)CSSC[C@@H](C(=O)O)NC(=O)CNC(=O)[C@H](CC(C)C)NC(=O)CNC(=O)[C@H](CO)NC(=O)[C@H](CCSC)NC(=O)[C@H](CO)NC(=O)CNC1=O` [AD] (H-GLSRGCFGTKLDRIGSMSGLGC-OH; disulfide 6-22), for which the cGMP response relative to 1 uM CNP22 (%) at 0.01 µM in data set [2] (setting [4]) amounted to 4%. For the same compound, the cGMP response relative to 1 uM CNP22 (%) at 1 µM in data set [2] (setting [5]) was 68%.

In the case of `CC[C@H](C)[C@@H]1NC(=O)[C@H](CCCNC(=N)N)NC(=O)[C@H](CC(=O)O)NC(=O)[C@H](CC(C)C)NC(=O)[C@H](CCCCN)NC(=O)[C@H](CC(C)C)NC(=O)CNC(=O)[C@H](Cc2cccc(C)c2)NC(=O)[C@@H](NC(=O)CNC(=O)CNC(=O)[C@H](CO)NC(=O)[C@H](CC(C)C)NC(=O)CN)CSSC[C@@H](C(=O)O)NC(=O)CNC(=O)[C@H](CC(C)C)NC(=O)CNC(=O)[C@H](CO)NC(=O)[C@H](CCSC)NC(=O)[C@H](CO)NC(=O)CNC1=O` [X] (H-GLSGGC[Phe(3-Me)]GLKLDRIGSMSGLGC-OH; disulfide 6-22), the half-life at 100 uM in data set [1] (setting [3]) worked out at 1.13 h.

As to `CC[C@H](C)[C@@H]1NC(=O)[C@H](CCCNC(=N)N)NC(=O)[C@H](CC(=O)O)NC(=O)[C@H](CC(C)C)NC(=O)[C@H](CCCCN)NC(=O)[C@H](CC(C)C)NC(=O)[C@H](CO)NC(=O)[C@H](Cc2ccccc2)NC(=O)[C@@H](NC(=O)CNC(=O)[C@H](CCCNC(=N)N)NC(=O)[C@H](CO)NC(=O)[C@H](CC(C)C)NC(=O)CN)CSSC[C@@H](C(=O)O)NC(=O)CNC(=O)[C@H](CC(C)C)NC(=O)CNC(=O)[C@H](CO)NC(=O)[C@H](CCSC)NC(=O)[C@H](CO)NC(=O)CNC1=O` [AB] (H-GLSRGCFSLKLDRIGSMSGLGC-OH; disulfide 6-22 (inferred); N-terminus and C-terminus assumed), in data set [2] (setting [4]), the cGMP response relative to 1 uM CNP22 (%) at 0.01 µM is 26 ± 26%. In data set [2] (setting [5]), the cGMP response relative to 1 uM CNP22 (%) at 1 µM was determined as 86 ± 17%.

Regarding “PEO24-CNP22, K4R: CNP22, K4R conjugated at the N-terminus to PEO24 (PEO24-GLSRGCFGLKLDRIGSMSGLGC; disulfide 6-22 (inferred); UniProt P23582 105-126, looked up, variant K4R)”, in data set [2] (setting [4]), the “cGMP Response rel. to 1 uM CNP22, 10 nM” value was determined as 15. In data set [2] (setting [5]), the “cGMP Response rel. to 1 uM CNP22, 1 uM” value amounted to 56.

In the case of `CC[C@H](C)[C@@H]1NC(=O)[C@H](CCCNC(=N)N)NC(=O)[C@H](CC(=O)O)NC(=O)[C@H](CC(C)C)NC(=O)[C@H](CCCCN)NC(=O)[C@H](CC(C)C)NC(=O)CNC(=O)[C@H](Cc2ccccc2)NC(=O)[C@@H](NC(=O)CNC(=O)[C@H](CCCNC(=N)N)NC(=O)[C@H](CO)NC(=O)[C@H](CC(C)C)NC(=O)CN)CSSC[C@@H](C(=O)O)NC(=O)CNC(=O)[C@H](CC(C)C)NC(=O)CNC(=O)[C@H](CO)NC(=O)[C@H](CCSC)NC(=O)[C@H](CO)NC(=O)[C@H](CCCNC(=N)N)NC1=O` [AE] (H-GLSRGCFGLKLDRIRSMSGLGC-OH; disulfide 6-22 (inferred); N-terminus and C-terminus assumed), in data set [2] (NIH3T3, […]), the cGMP response relative to 1 uM CNP22 (%) at 0.01 µM was 0.3% and the cGMP response relative to 1 uM CNP22 (%) at 1 µM amounted to 0.3%.
